Measured values taken from patent US20140057332A1, “GLUCO-OLIGOSACCHARIDE OXIDASES FROM ACREMONIUM STRICTUM AND USES THEREOF” (The Governing Council of the University of Toronto, priority 2011, published 2014).

T1: Acremonium strictum gluco-oligosaccharide oxidase GOOX-VN variant 1 Y300A, SEQ ID NO. 6 (Sarocladium strictum, UniProt D7PF15, A38V/S388N/Y300A)
T1 sequence (D7PF15 1-474 A38V/Y300A/S388N): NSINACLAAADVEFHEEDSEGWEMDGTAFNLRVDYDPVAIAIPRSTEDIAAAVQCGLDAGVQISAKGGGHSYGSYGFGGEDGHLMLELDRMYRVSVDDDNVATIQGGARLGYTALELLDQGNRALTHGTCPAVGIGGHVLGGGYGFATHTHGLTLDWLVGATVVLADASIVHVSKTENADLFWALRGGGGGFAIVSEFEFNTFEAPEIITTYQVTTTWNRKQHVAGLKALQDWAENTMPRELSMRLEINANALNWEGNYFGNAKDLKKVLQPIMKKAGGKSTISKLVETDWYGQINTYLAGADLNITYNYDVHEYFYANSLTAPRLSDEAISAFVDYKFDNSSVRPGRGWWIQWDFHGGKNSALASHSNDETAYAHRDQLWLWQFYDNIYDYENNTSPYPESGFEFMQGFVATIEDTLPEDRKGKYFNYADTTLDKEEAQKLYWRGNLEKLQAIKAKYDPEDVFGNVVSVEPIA

T2: Acremonium strictum gluco-oligosaccharide oxidase GOOX-VN variant 2 Y300N, SEQ ID NO. 7 (Sarocladium strictum, UniProt D7PF15, A38V/S388N/Y300N)
T2 sequence (D7PF15 1-474 A38V/Y300N/S388N): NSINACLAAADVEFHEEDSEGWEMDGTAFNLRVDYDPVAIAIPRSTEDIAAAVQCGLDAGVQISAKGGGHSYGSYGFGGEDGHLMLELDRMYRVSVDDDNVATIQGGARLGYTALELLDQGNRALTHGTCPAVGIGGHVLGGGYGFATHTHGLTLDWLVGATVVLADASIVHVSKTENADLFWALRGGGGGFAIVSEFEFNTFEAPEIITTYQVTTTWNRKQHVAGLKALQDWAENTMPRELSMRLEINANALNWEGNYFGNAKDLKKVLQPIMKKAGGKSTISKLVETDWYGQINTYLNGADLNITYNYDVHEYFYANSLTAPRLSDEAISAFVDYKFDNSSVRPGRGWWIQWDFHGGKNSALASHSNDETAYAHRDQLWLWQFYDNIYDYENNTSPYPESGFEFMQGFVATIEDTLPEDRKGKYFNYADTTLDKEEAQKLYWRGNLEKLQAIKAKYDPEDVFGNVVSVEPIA

T3: Acremonium strictum gluco-oligosaccharide oxidase GOOX-VN variant 3 W351F, SEQ ID NO. 8 (Sarocladium strictum, UniProt D7PF15, A38V/S388N/W351F)
T3 sequence (D7PF15 1-474 A38V/W351F/S388N): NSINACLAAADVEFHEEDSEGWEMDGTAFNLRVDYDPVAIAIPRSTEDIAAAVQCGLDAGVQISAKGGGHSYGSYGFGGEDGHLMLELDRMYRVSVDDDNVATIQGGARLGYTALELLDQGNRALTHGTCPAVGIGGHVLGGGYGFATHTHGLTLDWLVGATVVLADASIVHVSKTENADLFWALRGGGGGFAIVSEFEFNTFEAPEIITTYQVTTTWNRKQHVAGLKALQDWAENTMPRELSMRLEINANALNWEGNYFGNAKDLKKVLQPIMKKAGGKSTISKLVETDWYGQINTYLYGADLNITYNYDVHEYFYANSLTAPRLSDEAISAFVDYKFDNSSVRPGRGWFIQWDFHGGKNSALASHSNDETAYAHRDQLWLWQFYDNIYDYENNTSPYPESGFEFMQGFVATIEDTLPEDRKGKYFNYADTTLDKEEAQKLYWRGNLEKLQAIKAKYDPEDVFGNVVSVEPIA

T4: Acremonium strictum gluco-oligosaccharide oxidase GOOX-VN (type strain CBS 346.70, V38 and N388), SEQ ID NO. 2 (Sarocladium strictum, UniProt D7PF15, A38V/S388N)
T4 sequence (D7PF15 1-474 A38V/S388N): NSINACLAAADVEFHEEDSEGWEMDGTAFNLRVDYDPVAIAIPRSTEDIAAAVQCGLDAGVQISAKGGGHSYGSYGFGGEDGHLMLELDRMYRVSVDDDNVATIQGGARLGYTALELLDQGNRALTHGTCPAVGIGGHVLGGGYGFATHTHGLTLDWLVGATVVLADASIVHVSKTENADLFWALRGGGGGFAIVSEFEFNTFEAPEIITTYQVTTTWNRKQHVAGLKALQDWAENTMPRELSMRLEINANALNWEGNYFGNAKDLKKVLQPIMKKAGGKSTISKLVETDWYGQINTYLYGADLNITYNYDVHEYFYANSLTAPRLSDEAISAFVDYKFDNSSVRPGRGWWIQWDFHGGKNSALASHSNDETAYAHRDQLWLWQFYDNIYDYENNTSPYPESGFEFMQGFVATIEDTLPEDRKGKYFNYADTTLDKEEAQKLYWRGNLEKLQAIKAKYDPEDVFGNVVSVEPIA

B1: Y72F: GOOX-VN mutant with Y72F substitution (protein)
chain: NSINACLAAADVEFHEEDSEGWEMDGTAFNLRVDYDPVAIAIPRSTEDIAAAVQCGLDAGVQISAKGGGHSFGSYGFGGEDGHLMLELDRMYRVSVDDDNVATIQGGARLGYTALELLDQGNRALTHGTCPAVGIGGHVLGGGYGFATHTHGLTLDWLVGATVVLADASIVHVSKTENADLFWALRGGGGGFAIVSEFEFNTFEAPEIITTYQVTTTWNRKQHVAGLKALQDWAENTMPRELSMRLEINANALNWEGNYFGNAKDLKKVLQPIMKKAGGKSTISKLVETDWYGQINTYLYGADLNITYNYDVHEYFYANSLTAPRLSDEAISAFVDYKFDNSSVRPGRGWWIQWDFHGGKNSALASHSNDETAYAHRDQLWLWQFYDNIYDYENNTSPYPESGFEFMQGFVATIEDTLPEDRKGKYFNYADTTLDKEEAQKLYWRGNLEKLQAIKAKYDPEDVFGNVVSVEPIA
B2: Q384A: GOOX-VN mutant with Q384A substitution (protein)
chain: NSINACLAAADVEFHEEDSEGWEMDGTAFNLRVDYDPVAIAIPRSTEDIAAAVQCGLDAGVQISAKGGGHSYGSYGFGGEDGHLMLELDRMYRVSVDDDNVATIQGGARLGYTALELLDQGNRALTHGTCPAVGIGGHVLGGGYGFATHTHGLTLDWLVGATVVLADASIVHVSKTENADLFWALRGGGGGFAIVSEFEFNTFEAPEIITTYQVTTTWNRKQHVAGLKALQDWAENTMPRELSMRLEINANALNWEGNYFGNAKDLKKVLQPIMKKAGGKSTISKLVETDWYGQINTYLYGADLNITYNYDVHEYFYANSLTAPRLSDEAISAFVDYKFDNSSVRPGRGWWIQWDFHGGKNSALASHSNDETAYAHRDQLWLWAFYDNIYDYENNTSPYPESGFEFMQGFVATIEDTLPEDRKGKYFNYADTTLDKEEAQKLYWRGNLEKLQAIKAKYDPEDVFGNVVSVEPIA
B3: Y72A: GOOX-VN mutant with Y72A substitution (protein)
chain: NSINACLAAADVEFHEEDSEGWEMDGTAFNLRVDYDPVAIAIPRSTEDIAAAVQCGLDAGVQISAKGGGHSAGSYGFGGEDGHLMLELDRMYRVSVDDDNVATIQGGARLGYTALELLDQGNRALTHGTCPAVGIGGHVLGGGYGFATHTHGLTLDWLVGATVVLADASIVHVSKTENADLFWALRGGGGGFAIVSEFEFNTFEAPEIITTYQVTTTWNRKQHVAGLKALQDWAENTMPRELSMRLEINANALNWEGNYFGNAKDLKKVLQPIMKKAGGKSTISKLVETDWYGQINTYLYGADLNITYNYDVHEYFYANSLTAPRLSDEAISAFVDYKFDNSSVRPGRGWWIQWDFHGGKNSALASHSNDETAYAHRDQLWLWQFYDNIYDYENNTSPYPESGFEFMQGFVATIEDTLPEDRKGKYFNYADTTLDKEEAQKLYWRGNLEKLQAIKAKYDPEDVFGNVVSVEPIA

Assays:
[1] = molecular target: T1, Acremonium strictum gluco-oligosaccharide oxidase GOOX-VN variant 1 Y300A, SEQ ID NO. 6; test: Enzymatic assay, kinetic analysis (chromogenic H2O2 assay) of Y300A; conditions: 37° C., pH 8.0
Description: (§1) A chromogenic assay was used to measure hydrogen peroxide production (15). Reactions contained 0.1 mM 4aminoantipyrine (4AA), 1 mM phenol, 0.5 U horseradish peroxidase, 40 mM Tris-HCl (pH 8.0), and different substrates were initiated by adding 0.2 μg of enzymes to the 250 μL reaction mixture. The production of H2O2 was coupled to the oxidation of 4aminoantipyrine by horseradish peroxidase and detected at 500 nm. Reactions were incubated at 37° C. for 15 min to measure the specific activity of GOOX on 10 mM of monosaccharide or 1 mM of oligosaccharide.
(§2) At least 12 substrate concentrations were included to obtain kinetic parameters for each substrate. Initial rates were obtained by measuring reaction products every 30 s for 15 min at 37° C. and pH 8.0, and kinetic parameters were calculated using the Michaelis-Menten equation (GraphPad Prism5 Software).

[2] = molecular target: T2, Acremonium strictum gluco-oligosaccharide oxidase GOOX-VN variant 2 Y300N, SEQ ID NO. 7; test: Enzymatic assay, kinetic analysis (chromogenic H2O2 assay) of Y300N; conditions: 37° C., pH 8.0
Description: as §1, §2

[3] = molecular target: T3, Acremonium strictum gluco-oligosaccharide oxidase GOOX-VN variant 3 W351F, SEQ ID NO. 8; test: Enzymatic assay, kinetic analysis (chromogenic H2O2 assay) of W351F; conditions: for kcat: 37° C., pH 8.0
Description: as §1, §2

[4] = molecular target: T4, Acremonium strictum gluco-oligosaccharide oxidase GOOX-VN (type strain CBS 346.70, V38 and N388), SEQ ID NO. 2; test: Enzymatic assay, kinetic analysis (chromogenic H2O2 assay) of GOOX-VN; conditions: for kcat: 37° C., pH 8.0
Description: as §1, §2

[5] = Chromogenic H2O2 oxidase assay on xylopentaose; conditions: 1 mM xylopentaose; 37° C., 15 min
Description: as §1
(§3) An additional eight mutations, identified as Y72F, Y72A, E247A, E314A, W351A, N388S, Q353N, Q384A, were created in GOOX-VN to assess the influence of these residues on the substrate selectivity of GOOX-VN. […] The specific activity of each mutant was then measured at 37° C. for 15 min using 10 mM mono-sugars and 1 mM oligosaccharides as performed for Y300A, Y300N, and W351F (Table 11).

[6] = Chromogenic H2O2 oxidase assay / kinetic analysis on cellobiose; conditions: 1 mM cellobiose; 37° C., 15 min
Description: as §1, §2

[7] = Chromogenic H2O2 oxidase assay / kinetic analysis on cellotriose; conditions: 1 mM cellotriose; 37° C., 15 min
[8] = Chromogenic H2O2 oxidase assay on xylohexaose; conditions: 1 mM xylohexaose; 37° C., 15 min
Description: as §1, §3

[9] = Chromogenic H2O2 oxidase assay on xylotetraose; conditions: 1 mM xylotetraose; 37° C., 15 min
Description: as §1, §3

[10] = Chromogenic H2O2 oxidase assay / kinetic analysis on xylobiose; conditions: 1 mM xylobiose; 37° C., 15 min
Description: as §1, §2

[11] = Chromogenic H2O2 oxidase assay / kinetic analysis on xylotriose; conditions: 1 mM xylotriose; 37° C., 15 min
Description: as §1, §2

| Molecule | kcat [1] | kcat [2] | kcat [3] | change of Km versus GOOX-VN (in words) ([3]; W351F compared with GOOX-VN) | kcat [4] | Specific Activity of Enzyme Variants [6] | Specific Activity of Enzyme Variants [7] | further results |
| --- | --- | --- | --- | --- | --- | --- | --- | --- |
| OC1OC[C@@H](O[C@@H]2OC[C@@H](O)[C@H](O)[C@H]2O)[C@H](O)[C@H]1O (stereo partly drawn) [Xylobiose, xylobiose] | 13.29 ± 0.122 s⁻¹ | 11.96 ± 0.125 s⁻¹ |  |  |  |  |  |  |
| OC[C@H]1OC(O)[C@H](O)[C@@H](O)[C@@H]1O (stereo partly drawn) [Glucose, glucose] | 13.22 ± 0.24 s⁻¹ | 10.81 ± 0.103 s⁻¹ | 5.622 ± 0.08 s⁻¹ | increased | 7.485 ± 0.0917 s⁻¹ |  |  | catalytic efficiency (in words) ([4]; among glucose, xylose, galactose, NAG): highest catalytic efficiency |
| OC[C@H]1O[C@@H](O[C@H]2[C@H](O)[C@@H](O)C(O)O[C@@H]2CO)[C@H](O)[C@@H](O)[C@@H]1O (stereo partly drawn) [Cellobiose, cellobiose] | 13.72 ± 0.258 s⁻¹ | 11.4 ± 0.187 s⁻¹ |  |  |  |  |  |  |
| CC(=O)N[C@H]1C(O)O[C@H](CO)[C@@H](O)[C@@H]1O (stereo partly drawn) [NAG, N-acetylglucosamine] |  | 11.34 ± 0.113 s⁻¹ | 7.785 ± 0.718 s⁻¹ |  | 8.078 ± 0.203 s⁻¹ |  |  |  |
| OC1OC[C@@H](O)[C@H](O)[C@H]1O (stereo partly drawn) [Xylose, xylose] | 11.33 ± 0.137 s⁻¹ | 9.932 ± 0.172 s⁻¹ | 4.618 ± 0.0633 s⁻¹ | increased | 5.248 ± 0.15 s⁻¹ |  |  |  |
| OC1OC[C@@H](O[C@@H]2OC[C@@H](O[C@@H]3OC[C@@H](O)[C@H](O)[C@H]3O)[C@H](O)[C@H]2O)[C@H](O)[C@H]1O (stereo partly drawn) [Xylotriose, xylotriose] | 13.87 ± 0.11 s⁻¹ | 11.97 ± 0.185 s⁻¹ |  |  |  |  |  |  |
| OC[C@H]1OC(O)[C@H](O)[C@@H](O)[C@H]1O (stereo partly drawn) [Galactose, galactose] | 13.3 ± 0.245 s⁻¹ | 11.76 ± 0.0883 s⁻¹ | 6.56 ± 0.075 s⁻¹ | decreased | 7.152 ± 0.137 s⁻¹ |  |  | change of catalytic efficiency versus GOOX-VN (in words) ([3]; W351F compared with GOOX-VN): higher catalytic efficiency |
| B1 |  |  |  |  |  | 0.2 µmol/min/mg | 0.5 µmol/min/mg | Specific Activity of Enzyme Variants [5]: 0.4 µmol/min/mg |
| B2 |  |  |  |  |  | 0.2 µmol/min/mg | 0.4 µmol/min/mg | Specific Activity of Enzyme Variants [8]: 0.1 µmol/min/mg |
| B3 |  |  |  |  |  | 1.1 µmol/min/mg | 2.1 µmol/min/mg | Specific Activity of Enzyme Variants [8]: 2.2 µmol/min/mg; Specific Activity of Enzyme Variants [9]: 2.5 µmol/min/mg; Specific Activity of Enzyme Variants [5]: 3.2 µmol/min/mg; Specific Activity of Enzyme Variants [10]: 0.5 µmol/min/mg; Specific Activity of Enzyme Variants [11]: 1.3 µmol/min/mg |
